The values that follow come from patent publication US12433876B2, “Septin inhibitors for treatment of cancers” (UNIVERSITY OF ROCHESTER, priority 2019, dated 2025).

This test concerns the target T1, septin-2 (Homo sapiens, UniProt Q15019).
T1 sequence (Q15019 1-361): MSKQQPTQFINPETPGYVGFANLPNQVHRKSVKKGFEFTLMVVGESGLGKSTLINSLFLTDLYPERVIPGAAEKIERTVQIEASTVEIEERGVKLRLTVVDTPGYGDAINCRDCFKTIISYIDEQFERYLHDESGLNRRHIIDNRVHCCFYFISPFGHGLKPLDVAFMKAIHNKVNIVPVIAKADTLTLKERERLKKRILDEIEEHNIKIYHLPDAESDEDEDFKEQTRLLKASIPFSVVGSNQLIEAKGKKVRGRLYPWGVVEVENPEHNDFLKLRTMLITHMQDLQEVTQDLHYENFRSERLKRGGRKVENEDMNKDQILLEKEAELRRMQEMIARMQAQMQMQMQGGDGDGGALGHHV
Description: Confocal analysis of septin-2 filament structure. The test is classed as cell-based. The conditions noted are these: 48 hours. The text has this: Cell Cycle Protein Expression. Cell Cycle Antibody Array (FullMoon BioSystems Inc, catalogue number: ACC:058), a high throughput ELISA based antibody array, designed for qualitative/semi-quantitative protein expression profiling was employed to investigate the protein changes after drug treatment. PANC-1 cells were lysed in buffer containing protease and phosphatase inhibitors (Cell Signaling, catalog number: 9803S). Total protein content was quantified by Bradford assay and equal amounts of proteins were analyzed in duplicate with arrays containing 4 to 6 spots for each of 60 probes (ACC058, Cell Cycle Antibody Array; Full Moon Biosystems, Sunnyvale, Calif.), according to manufacturer's instructions. After background correction, mean signal intensities were measured using FullMoon Inc's imaging services. Protein expressions in both the naïve and 328 treatment group was normalized to GAPDH signals. Confocal Analysis of Septin Disarrangement. To determine the impact of UR214-9 treatment on Septin-2 structure in cells, PANC-1 or JIMT-1 cells were seeded on glass slides and allowed to adhere overnight. The media was replaced with complete DMEM media supplemented with DMSO or UR214-9 (1 μM and 70 nM) and cells were incubated for 48 hours. Media was replaced again with new complete medium and fixed with neutral buffered formalin for 15 minutes at […]. Media was removed and cells were washed repeatedly with PBST (5×5 mL). The cells were stained with Septin-2 antibody (Sigma Aldrich, catalog number: HPA018481) in PSB overnight at […]. Media was removed again and cells were washed with 2×5 mL PBST. The cells were stained with fluorescence linked secondary antibody for 1 hr under dark. Slides were washed repeatedly in dark for 7×5 mL PBST, mounting medium containing DAPI (Vector labs) were applied and covered with glass slide. The slides were stored in dark at […] till analysis. Confocal images were obtained and processed essentially as published earlier (see Moore, R. G., Hill, E. K., Horan, T., Yano, N., Kim, K., MacLaughlan, S., Lambert-Messerlian, G., Tseng, Y. D., Padbury, J. F., Miller, M. C., Lange, T. S., Singh, R. K. Sci Rep. 4, 3574, 2014). Pancreatic tumor microarray (US Biomax, cat no: T142a) were deparaffinized, processed and stained with Septin-2 antibody (Sigma Aldrich, cat number: HPA018481) overnight, washed with PBST and incubated with source matched secondary (FITC) for an hour. Slide was washed in PBST (5×10 mL) for five minutes each. DAPI containing mounting media was applied and covered with a glass slide. Confocal images were acquired with Nikon C1si confocal microscope (Nikon Inc. Mellville N.Y.) using diode lasers 402, 488 and 561. […] Five cells were outlined and analyzed per field. […]

`O=C(Nc1cc(Cl)nc(Cl)c1)Nc1cccc(SC(F)(F)F)c1F` [UR214-9]: the septin-2 needles entry is, setting by setting: (JIMT-1, 1 μM) “structural disruptions and relocation to nuclear periphery”; (PANC-1, 1 uM) “disarranged and translocated at the cell-surface”. Under “SKOV-3, 1 μM”, the septin-2 filaments entry is listed as “complete disruption of septin-2 filaments”.
As to `O=C(Nc1ccccc1)Nc1ccnc(Cl)c1` [FCF, N-(2-chloro-4-pyridyl)-N′-phenylurea, reference compound], the septin-2 filaments entry (BXPC-3 cells, 60 μM) is “strengthen the septin-2 filaments”.
